# Read-outs that look alike come from different tables or passages of the source.
# What was measured:
# Salmonella typhimurium = test: Control of infections caused by Salmonella typhimurium in chickens, subcutaneous (Experiment 2); assay type: in vivo; conditions: Salmonella enterica, sc, 144 h, 6 days, read-out: Survival Ratio (converted); for responders at 3.75 mg/kg: 3.75 mg./kg. subcutaneous; for responders at 7.5 mg/kg: 7.5 mg./kg. subcutaneous; for responders at 15 mg/kg: 15 mg./kg. subcutaneous; for responders at 30 mg/kg: 30 mg./kg. subcutaneous; for responders at 60 mg/kg: 60 mg./kg. subcutaneous
# Actinomyces bovis 13684 = test: Susceptibility of anaerobic bacteria, agar dilution; assay type: cell-based; conditions: read-out: 24 Hr. Minimum Inhibitory Concentration
# [1] = test system: Clostridium innocuum 1373; test: as above; assay type: cell-based; conditions: read-out: 24 Hr. Minimum Inhibitory Concentration
# [2] = test system: Clostridium perfringens 81; test: microbe, parasite or virus in culture; assay type: cell-based; conditions: Clostridium perfringens, 81, 24 h, read-out: 24 Hr. Minimum Inhibitory Concentration
# Clostridium ramosum 1313 = test: Susceptibility of anaerobic bacteria, agar dilution; assay type: cell-based; conditions: read-out: 24 Hr. Minimum Inhibitory Concentration
# [3] = test system: Clostridium septicum 1128; test: as above; assay type: cell-based; conditions: 24 h, read-out: 24 Hr. Minimum Inhibitory Concentration
# [4] = test system: Clostridium septicum bovine; test: as above; assay type: cell-based; conditions: 24 h, read-out: 24 Hr. Minimum Inhibitory Concentration
# [5] = test system: Eubacterium aerofaciens 1235; test: as above; assay type: cell-based; conditions: read-out: 24 Hr. Minimum Inhibitory Concentration
# [6] = test system: Peptococcus anaerobius 1428; test: as above; assay type: cell-based; conditions: 24 h, read-out: 24 Hr. Minimum Inhibitory Concentration
# [7] = test system: Peptostreptococcus intermedius 1264; test: as above; assay type: cell-based; conditions: 24 h; Peptostreptococcus intermedius 1264; read-out: 24 Hr. Minimum Inhibitory Concentration
# [8] = test system: Propionibacterium acnes 44; test: as above; assay type: cell-based; conditions: Cutibacterium acnes, 24 h; Propionibacterium acnes 44; read-out: 24 Hr. Minimum Inhibitory Concentration
# [9] = test system: Bacteroides fragilis sp. fragilis 1936B; test: as above; assay type: cell-based; conditions: 24 h, read-out: 24 Hr. Minimum Inhibitory Concentration
# [10] = test system: Bacteroides fragilis sp. thetaiotaomicron 1438; test: as above; assay type: cell-based; conditions: 24 h, read-out: 24 Hr. Minimum Inhibitory Concentration
# [11] = test system: Bacteroides fragilis sp. vulgatus 1563; test: as above; assay type: cell-based; conditions: 24 h, read-out: 24 Hr. Minimum Inhibitory Concentration
# [12] = test system: Bacteroides fragilis sp. vulgatus 1211; test: as above; assay type: cell-based; conditions: 24 h, read-out: 24 Hr. Minimum Inhibitory Concentration
# [13] = test system: Fusobacterium symbiosum 1470; test: as above; assay type: cell-based; conditions: read-out: 24 Hr. Minimum Inhibitory Concentration
# [14] = 24 h, Clostridium innocuum 1373
# [15] = Thomasclavelia ramosa, 24 h, Clostridium ramosum 1313
# [16] = Collinsella aerofaciens, 24 h, Eubacterium aerofaciens 1235
# [17] = Bacteroides fragilis sp. fragilis 1936B
# [18] = Bacteroides fragilis sp. thetaiotaomicron 1438
# [19] = Bacteroides fragilis sp. vulgatus 1563
# [20] = Bacteroides fragilis sp. vulgatus 1211
# [21] = 24 h, Fusobacterium symbiosum 1470
# [22] = [Clostridium] innocuum, 1373, 24 h
# [23] = Thomasclavelia ramosa, 1313, 24 h
# [24] = Collinsella aerofaciens, 1235, 24 h
SMILES,responders at 3.75 mg/kg (Salmonella typhimurium) [%],responders at 7.5 mg/kg (Salmonella typhimurium) [%],responders at 15 mg/kg (Salmonella typhimurium) [%],responders at 30 mg/kg (Salmonella typhimurium) [%],responders at 60 mg/kg (Salmonella typhimurium) [%],MIC [2] [µg/mL],MIC [3] [µg/mL],MIC [4] [µg/mL],MIC [7] [µg/mL],MIC [8] [µg/mL],"MIC (Actinomyces bovis 13684; Actinomyces bovis, 13684, 24 h) [µg/mL]","MIC [1, 22] [µg/mL]",MIC (Clostridium ramosum 1313; [23]) [µg/mL],"MIC [5, 24] [µg/mL]",MIC [6] [µg/mL],MIC ([9]; Bacteroides fragilis) [µg/mL],MIC ([10]; Bacteroides fragilis) [µg/mL],MIC ([11]; Bacteroides fragilis) [µg/mL],MIC ([12]; Bacteroides fragilis) [µg/mL],"MIC ([13]; Fusobacterium, 1470, 24 h) [µg/mL]",further results
"C=CCOC=Nc1c(C#N)c(-c2ncc([N+](=O)[O-])n2C)nn1C [Compound 13A, Allyl N-[4-cyano-1-methyl-3-(1-methyl-5-nitro-2-imidazolyl)pyrazol-5-yl]formimidate]",40,46.7,53.3,33.3,50,1,0.5,0.5,16,> 128,–,–,–,–,–,–,–,–,–,–,"MIC (Actinomyces bovis 13684; 24 h, Actinomyces bovis 13684): 0.5 µg/mL; MIC [1, 14]: 1 µg/mL; MIC (Clostridium ramosum 1313; [15]): 4 µg/mL; MIC [5, 16]: < 0.125 µg/mL; MIC ([6]; Peptococcus anaerobius 1428): 2 µg/mL; MIC [9, 17]: 2 µg/mL; MIC [10, 18]: 0.25 µg/mL; MIC [11, 19]: 0.25 µg/mL; MIC [12, 20]: < 0.125 µg/mL; MIC [13, 21]: < 0.125 µg/mL"
"Cn1nc(-c2ncc([N+](=O)[O-])n2C)c(C#N)c1N [Compound 1, 5-Amino-1-methyl-3-(1-methyl-5-nitro-2-imidazolyl)pyrazole-4-carbonitrile]",44,62.9,72,54,67.1,< 0.125,< 0.125,< 0.125,0.5,> 32,< 0.125,< 0.125,< 0.125,< 0.125,< 0.125,< 0.125,< 0.125,< 0.125,< 0.125,< 0.125,–
"CCCCOC=Nc1c(C#N)c(-c2ncc([N+](=O)[O-])n2C)nn1C [Compound 7, Butyl N-[4-Cyano-1-methyl-3-(1-methyl-5-nitro-2-imidazolyl)-pyrazol-5-yl]formimidate]",–,0,55,40,55,< 0.125,< 0.125,< 0.125,2,> 32,< 0.125,< 0.125,< 0.125,< 0.125,< 0.125,< 0.125,< 0.125,< 0.125,< 0.125,< 0.125,–
"CC(=O)Nc1c(C(=O)O)c(-c2ncc([N+](=O)[O-])n2C)nn1C [Compound 12, 5-acetamido-1-methyl-3-(1-methyl-5-nitro-2-imidazolyl)pyrazole-4-carboxylic acid]",–,–,–,–,–,8,4,8,32,> 32,–,–,–,–,–,–,–,–,–,–,"MIC (Actinomyces bovis 13684; 24 h, Actinomyces bovis 13684): 0.5 µg/mL; MIC [1, 14]: 8 µg/mL; MIC (Clostridium ramosum 1313; [15]): 4 µg/mL; MIC [5, 16]: 1 µg/mL; MIC ([6]; Peptococcus anaerobius 1428): 8 µg/mL; MIC [9, 17]: 16 µg/mL; MIC [10, 18]: 2 µg/mL; MIC [11, 19]: 1 µg/mL; MIC [12, 20]: 2 µg/mL; MIC [13, 21]: < 0.125 µg/mL"
"CCCCC(CC)COC=Nc1c(C#N)c(-c2ncc([N+](=O)[O-])n2C)nn1C (centres unmarked) [Compound 13D, 2-Ethylhexyl N-[4-cyano-1-methyl-3-(1-methyl-5-nitro-2-imidazolyl)pyrazol-5-yl]formimidate]",–,–,10,10,33.3,1,2,4,16,16,–,–,–,–,–,–,–,–,–,–,"MIC (Actinomyces bovis 13684; 24 h, Actinomyces bovis 13684): 1 µg/mL; MIC [1, 14]: 1 µg/mL; MIC (Clostridium ramosum 1313; [15]): 1 µg/mL; MIC [5, 16]: 2 µg/mL; MIC ([6]; Peptococcus anaerobius 1428): 2 µg/mL; MIC [9, 17]: 0.5 µg/mL; MIC [10, 18]: 1 µg/mL; MIC [11, 19]: 0.5 µg/mL; MIC [12, 20]: 1 µg/mL; MIC [13, 21]: 1 µg/mL"
"Cn1nc(-c2ncc([N+](=O)[O-])n2C)c(C(N)=O)c1N [Compound 2, 5-Amino-1-methyl-3-(1-methyl-5-nitro-2-imidazolyl)pyrazole-4-carboxamide]",–,0,40,44,46.7,< 0.125,< 0.125,< 0.125,1,0.5,< 0.125,< 0.125,< 0.125,< 0.125,< 0.125,< 0.125,< 0.125,< 0.125,< 0.125,< 0.125,–
"COC=Nc1c(C#N)c(-c2ncc([N+](=O)[O-])n2C)nn1C [Compound 6, Methyl N-[4-cyano-1-methyl-3-(1-methyl-5-nitro-2-imidazolyl)pyrazol-5-yl]formimidate]",80,90,50,50,46.7,< 0.125,< 0.125,< 0.125,1,> 32,< 0.125,< 0.125,< 0.125,< 0.125,< 0.125,< 0.125,< 0.125,< 0.125,< 0.125,< 0.125,–
